In US11680281B2, “Biosynthetic production of steviol glycosides and processes therefore” (Conagen Inc., priority 2016, dated 2023):

Tests used:
[1] = Sensory evaluation (taste test) of rebaudiosides against sucrose controls; assay type: in vivo; settings: rebaudioside 300 ppm in bottled water, room temperature; vs 1.0%, 3.0%, 6.0% sucrose (w/v); panel of 13 volunteer human subjects
Method: A sensory evaluation of rebaudiosides was performed using sucrose as a control. The sucrose sample was purchased from Sigma-Aldrich and was used to prepared control samples at three different concentrations of 1.0%, 3.0%, and 6.0% sucrose in bottled water (w/v) at room temperature. The rebaudioside was prepared at 300 ppm for sensory evaluation by adding a corresponding mass into 1000 mL of bottled water. The mixture was stirred at room temperature and the steviol glycoside sample was then evaluated against several control sucrose samples at 1.0%, 3.0%, and 6.0% by a panel of 13 volunteer human subjects.

[2] = relative to table sugar (sucrose); cited from earlier work
[3] = In vitro conversion of Reb D4 to Reb M by recombinant UGT polypeptides, HPLC analysis; assay type: biochemical; settings: 10 μg polypeptide, 1 mg/ml Reb D4, 1 mM UDP-glucose, 30° C., 30 min and 1 hr; compared with UGT76G1
Method: In this Example, to confirm the conversion of Reb D4 to rebaudioside M in vitro, the UGT76G1, CP1 and enzyme mutants were assayed using Reb D4 as the steviol glycoside substrate. The recombinant polypeptide (10 μg) was tested in a 200 μL in vitro reaction system. The reaction system contained 50 mM potassium phosphate buffer, pH 7.2, 3 mM MgCl2, 1 mg/ml steviol glycoside substrate, and 1 mM UDP-glucose. The reaction was performed at 30° C. and terminated by adding 200 μL of 1-butanol. The samples were extracted three times with 200 μL of 1-butanol. The pooled fraction was dried and dissolved in 70 μL of 80% methanol for high-performance liquid chromatography (HPLC) analysis. Rebaudioside D4 were used as substrate. HPLC analysis was performed using a Dionex UPLC ultimate 3000 system (Sunnyvale, Calif.), including a quaternary pump, a temperature controlled column compartment, an auto sampler and a UV absorbance detector. Synergi Hydro-RP column with guard column was used for the characterization of steviol glycosides. Acetonitrile in water was used for elution in HPLC analysis. The detection wavelength was 210 nm.

Molecule	Fold increase in sweetness relative to sucrose [1]	further results
C=C1C[C@@]23CC[C@H]4[C@@](C)(CCC[C@@]4(C)C(=O)OC4OC(CO)C(O)C(OC5OC(CO)C(O)C(O)C5O)C4OC4OC(CO)C(O)C(O)C4O)[C@@H]2CC[C@]1(OC1OC(CO)C(O)C(O)C1OC1OC(CO)C(O)C(O)C1O)C3 (stereo partly drawn) [Reb D4, 13-[(2-O-β-D-glucopyranosyl-β-D-glucopyranosyl)oxy] ent-kaur-16-en-19-oic acid-[(2-O-β-D-glucopyranosyl-3-O-β-D-glucopyranosyl-β-D-glucopyranosyl) ester]]	109 fold	–
C=C1C[C@@]23CC[C@H]4[C@@](C)(CCC[C@@]4(C)C(=O)OC4OC(CO)C(O)C(OC5OC(CO)C(O)C(O)C5O)C4OC4OC(CO)C(O)C(O)C4O)[C@@H]2CC[C@]1(OC1OC(CO)C(O)C(O)C1O)C3 (some centres unmarked) [Reb WB1]	133 fold	–
C=C1C[C@@]23CC[C@H]4[C@@](C)(CCC[C@@]4(C)C(=O)OC4OC(CO)C(O)C(OC5OC(CO)C(O)C(O)C5O)C4OC4OC(CO)C(O)C(O)C4O)[C@@H]2CC[C@]1(O)C3 (some centres unmarked) [Reb WB2]	79 fold	–
C=C1C[C@@]23CC[C@H]4[C@@](C)(CCC[C@@]4(C)C(=O)O[C@@H]4O[C@H](CO)[C@@H](O)[C@H](O)[C@H]4O)[C@@H]2CC[C@]1(O[C@@H]1O[C@H](CO)[C@@H](O)[C@H](O)[C@H]1O[C@@H]1O[C@H](CO)[C@@H](O)[C@H](O)[C@H]1O)C3 [stevioside]	–	sweetness relative to sucrose (times sweeter than sucrose) [2]: 100-150 times
CP1: circular permutation of UGT76G1 enzyme (SEQ ID NO: 3) (protein, CP1 amino acid sequence) MNWQILKEILGKMIKQTKASSGVIWNSFKELEESELETVIREIPAPSFLIPLPKHLTASSSSLLDHDRTVFQWLDQQPPSSVLYVSFGSTSEVDEKDFLEIARGLVDSKQSFLWVVRPGFVKGSTWVEPLPDGFLGERGRIVKWVPQQEVLAHGAIGAFWTHSGWNSTLESVCEGVPMIFSDFGLDQPLNARYMSDVLKVGVYLENGWERGEIANAIRRVMVDEEGEYIRQNARVLKQKADVSLMKGGSSYESLESLVSYISSLENKTETTVRRRRRIILFPVPFQGHINPILQLANVLYSKGFSITIFHTNFNKPKTSNYPHFTFRFILDNDPQDERISNLPTHGPLAGMRIPIINEHGADELRRELELLMLASEEDEEVSCLITDALWYFAQSVADSLNLRRLVLMTSSLFNFHAHVSLPQFDELGYLDPDDKTRLEEQASGFPMLKVKDIKSAYS	–	enzymatic activity, transfer of one glucose to Reb D4 to form Reb M [3]: significantly higher enzymatic activity than UGT76G1
